Measurements reported in ChEMBL document CHEMBL3397018, “Discovery of phenylpiperazine derivatives as IGF-1R inhibitor with potent antiproliferative properties in vitro” (Bioorg Med Chem Lett, 2015).
Calls of active or inactive are those of the source. The calls are words filed in the database; no cut-off is given here.

How the values were obtained:
[1] = Antiproliferative activity against human SGC7901 cells after 48 hrs by MTT assay; conditions: SGC-7901, 48 h
[2] = biological target: Insulin-like growth factor 1 receptor (Homo sapiens, UniProt P08069); assay: Inhibition of NH2-terminal glutathione S-transferase fused human recombinant IGF-IR catalytic domain expressed in insect cells using poly(Glu:Tyr) substrate by ELISA-based assay
[3] = cells; conditions: Homo sapiens, LS174T, 48 h
Description: Antiproliferative activity against human LS 174T cells after 48 hrs by MTT assay

[4] = Cytotoxicity against human QSG7701 cells after 72 hrs by MTT assay; assay type: cell-based
[5] = system: MCF7; assay: cells; conditions: Homo sapiens, MCF7, 48 h
[6] = Antiproliferative activity against human SMMC7721 cells after 48 hrs by MTT assay; conditions: SMMC-7721, 48 h
[7] = system: MCF7; assay: Induction of apoptosis in human MCF7 cells after 24 hrs by DNA ladder detection based method; assay type: functional, cell-based

Chain of Insulin-like growth factor 1 receptor (P08069 31-736 limits assumed): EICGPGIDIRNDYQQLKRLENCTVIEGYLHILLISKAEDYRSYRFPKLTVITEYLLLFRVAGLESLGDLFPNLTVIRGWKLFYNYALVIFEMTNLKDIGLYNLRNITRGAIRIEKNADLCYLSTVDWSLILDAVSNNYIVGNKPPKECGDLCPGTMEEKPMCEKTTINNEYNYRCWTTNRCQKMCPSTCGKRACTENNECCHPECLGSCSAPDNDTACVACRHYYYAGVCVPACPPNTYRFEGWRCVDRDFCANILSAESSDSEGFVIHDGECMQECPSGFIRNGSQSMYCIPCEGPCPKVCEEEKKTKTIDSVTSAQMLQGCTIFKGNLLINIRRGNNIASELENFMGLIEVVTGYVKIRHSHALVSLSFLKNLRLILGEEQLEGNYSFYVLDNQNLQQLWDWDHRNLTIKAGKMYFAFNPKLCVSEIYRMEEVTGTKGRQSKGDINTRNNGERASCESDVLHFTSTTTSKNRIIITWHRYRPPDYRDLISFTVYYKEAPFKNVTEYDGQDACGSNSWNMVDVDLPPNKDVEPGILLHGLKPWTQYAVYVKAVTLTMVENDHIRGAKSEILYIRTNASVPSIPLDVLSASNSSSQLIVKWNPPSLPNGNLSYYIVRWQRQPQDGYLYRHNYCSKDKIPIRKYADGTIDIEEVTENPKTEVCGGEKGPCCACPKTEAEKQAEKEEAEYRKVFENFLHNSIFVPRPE
Chain of Insulin-like growth factor 1 receptor (P08069 741-1367 limits assumed): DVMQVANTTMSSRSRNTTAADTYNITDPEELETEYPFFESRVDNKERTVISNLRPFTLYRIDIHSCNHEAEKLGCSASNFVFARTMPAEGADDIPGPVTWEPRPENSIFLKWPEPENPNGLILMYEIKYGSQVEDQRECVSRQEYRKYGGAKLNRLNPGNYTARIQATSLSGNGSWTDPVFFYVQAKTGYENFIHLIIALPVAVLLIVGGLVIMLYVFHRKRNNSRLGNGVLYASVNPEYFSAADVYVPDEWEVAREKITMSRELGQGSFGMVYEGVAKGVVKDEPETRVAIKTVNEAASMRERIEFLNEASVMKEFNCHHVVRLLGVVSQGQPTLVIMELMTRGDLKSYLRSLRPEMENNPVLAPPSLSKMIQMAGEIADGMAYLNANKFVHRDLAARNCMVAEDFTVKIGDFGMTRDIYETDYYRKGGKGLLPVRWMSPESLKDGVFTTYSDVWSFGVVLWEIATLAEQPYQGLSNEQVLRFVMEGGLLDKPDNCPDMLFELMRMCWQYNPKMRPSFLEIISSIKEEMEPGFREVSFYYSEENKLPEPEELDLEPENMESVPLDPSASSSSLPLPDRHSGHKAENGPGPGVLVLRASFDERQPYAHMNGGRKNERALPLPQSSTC

Row | IC50 [2] | IC50 [3] | IC50 [5] | Compound | IC50 [1] | CC50 at 72 h [4] | IC50 [6] | Activity [7]
1 | 0.034 µM | 0.111 µM | 0.037 µM | OC(CN1CCN(C(c2ccccc2)c2ccccc2)CC1)c1ccc(Br)cc1 (stereo not given) | 0.253 µM | 2000 µM | 0.135 µM | 
2 |  | 2.18 µM | 1.31 µM | O=[N+]([O-])c1ccc(N2CCN(CC(O)c3ccc(Br)cc3)CC2)cc1 (stereo not given) | 1.84 µM | 1600 µM | 1.53 µM | 
3 |  | 2.54 µM | 2.46 µM | OC(CN1CCN(c2ccccc2Cl)CC1)c1ccc(Br)cc1 (stereo not given) | 4.62 µM |  | 3.92 µM | 
4 |  | 1.92 µM | 1.06 µM | OC(CN1CCN(c2cccc(Cl)c2Cl)CC1)c1ccc(Br)cc1 (stereo not given) | 2.47 µM |  | 2.04 µM | 
5 |  | 16.9 µM | 10.4 µM | OC(CN1CCN(c2cccc(Cl)c2)CC1)c1ccc(Br)cc1 (stereo not given) | 22.3 µM |  | 7.83 µM | 
6 |  | 2.6 µM | 1.34 µM | COc1ccc(N2CCN(CC(O)c3ccc(Br)cc3)CC2)cc1 (stereo not given) | 3.46 µM |  | 2.82 µM | 
7 |  | 4.61 µM | 11.5 µM | OC(CN1CCN(c2ccc(F)cc2)CC1)c1ccc(Br)cc1 (stereo not given) | 10.3 µM |  | 8.16 µM | 
8 |  | 6.61 µM | 3.41 µM | OC(CN1CCN(c2ccccn2)CC1)c1ccc(Br)cc1 (stereo not given) | 5.7 µM |  | 6.12 µM | 
9 |  | 8.99 µM | 5.71 µM | OC(CN1CCN(c2ccccc2)CC1)c1ccc(Br)cc1 (stereo not given) | 9.28 µM | 250 µM | 7.64 µM | 
10 |  | 2.05 µM | 1.75 µM | Cc1cc(N2CCOCC2)cc2[nH]c(-c3c(NC[C@@H](O)c4cccc(Cl)c4)cc[nH]c3=O)nc12 | 2.89 µM | 32000 µM | 2.56 µM | 
11 |  | 2.06 µM | 1.44 µM | COc1cccc(N2CCN(CC(O)c3ccc(Br)cc3)CC2)c1 (stereo not given) | 3.29 µM |  | 2.91 µM | 
12 |  | 0.963 µM | 0.86 µM | OC(CN1CCN(c2cccc(C(F)(F)F)c2)CC1)c1ccc(Br)cc1 (stereo not given) | 2.08 µM | 6600 µM | 1.2 µM | 
13 | 0.568 µM | 2.69 µM | 2.88 µM | OC(CN1CCN(Cc2ccccc2)CC1)c1ccc(Br)cc1 (stereo not given) | 3.76 µM |  | 3.54 µM | 
14 |  | 2.57 µM | 1.22 µM | COc1ccccc1N1CCN(CC(O)c2ccc(Br)cc2)CC1 (stereo not given) | 4.15 µM |  | 2.28 µM | 
15 |  | 1.82 µM | 0.863 µM | Cc1ccc(N2CCN(CC(O)c3ccc(Br)cc3)CC2)c(C)c1 (stereo not given) | 1.39 µM |  | 1.48 µM | 
16 |  | 5.34 µM | 16.4 µM | OC(CN1CCN(c2ccccc2F)CC1)c1ccc(Br)cc1 (stereo not given) | 16 µM |  | 9.63 µM | 
17 |  | 0.068 µM | 0.024 µM | OC(CN1CCN(C(c2ccc(F)cc2)c2ccc(F)cc2)CC1)c1ccc(Br)cc1 (stereo not given) | 0.116 µM |  | 0.15 µM | Active
18 |  | 1.89 µM | 0.777 µM | OC(CN1CCN(c2ccc(Cl)c(Cl)c2)CC1)c1ccc(Br)cc1 (stereo not given) | 2.14 µM |  | 1.68 µM | 
